Assay results from patent US20250145589A1, “PYRIDINE DERIVATIVE AND USE THEREOF” (SICHUAN HUIYU PHARMACEUTICAL CO., LTD., priority 2021, published 2025).
Where two headings read alike, the source gives them in different places.

Tests used:
PI3Kα = PI3Kα (Homo sapiens (Human), UniProt P42336); experiment: Inhibition of PI3Kα efficacy assay (ADP-Glo kinase assay); format: biochemical; conditions: read-out: PI3Kα inhibitory activity (IC50)
How it was run: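 Eight five-fold dilutions of compound (2 mM DMSO stock) tested; kinase reaction with PI and ATP ran 60 min at RT, followed by ADP-Glo and detection reagent steps of 40 min each. Four-parameter logistic fitting gave IC50 values.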

PI3Kδ = PI3Kδ (Homo sapiens (Human), UniProt O00329); experiment: Inhibition of PI3Kδ efficacy assay (ADP-Glo kinase assay); format: biochemical; conditions: read-out: PI3Kδ inhibitory activity (IC50)
PI3Kδ, sequence (O00329 whole entry): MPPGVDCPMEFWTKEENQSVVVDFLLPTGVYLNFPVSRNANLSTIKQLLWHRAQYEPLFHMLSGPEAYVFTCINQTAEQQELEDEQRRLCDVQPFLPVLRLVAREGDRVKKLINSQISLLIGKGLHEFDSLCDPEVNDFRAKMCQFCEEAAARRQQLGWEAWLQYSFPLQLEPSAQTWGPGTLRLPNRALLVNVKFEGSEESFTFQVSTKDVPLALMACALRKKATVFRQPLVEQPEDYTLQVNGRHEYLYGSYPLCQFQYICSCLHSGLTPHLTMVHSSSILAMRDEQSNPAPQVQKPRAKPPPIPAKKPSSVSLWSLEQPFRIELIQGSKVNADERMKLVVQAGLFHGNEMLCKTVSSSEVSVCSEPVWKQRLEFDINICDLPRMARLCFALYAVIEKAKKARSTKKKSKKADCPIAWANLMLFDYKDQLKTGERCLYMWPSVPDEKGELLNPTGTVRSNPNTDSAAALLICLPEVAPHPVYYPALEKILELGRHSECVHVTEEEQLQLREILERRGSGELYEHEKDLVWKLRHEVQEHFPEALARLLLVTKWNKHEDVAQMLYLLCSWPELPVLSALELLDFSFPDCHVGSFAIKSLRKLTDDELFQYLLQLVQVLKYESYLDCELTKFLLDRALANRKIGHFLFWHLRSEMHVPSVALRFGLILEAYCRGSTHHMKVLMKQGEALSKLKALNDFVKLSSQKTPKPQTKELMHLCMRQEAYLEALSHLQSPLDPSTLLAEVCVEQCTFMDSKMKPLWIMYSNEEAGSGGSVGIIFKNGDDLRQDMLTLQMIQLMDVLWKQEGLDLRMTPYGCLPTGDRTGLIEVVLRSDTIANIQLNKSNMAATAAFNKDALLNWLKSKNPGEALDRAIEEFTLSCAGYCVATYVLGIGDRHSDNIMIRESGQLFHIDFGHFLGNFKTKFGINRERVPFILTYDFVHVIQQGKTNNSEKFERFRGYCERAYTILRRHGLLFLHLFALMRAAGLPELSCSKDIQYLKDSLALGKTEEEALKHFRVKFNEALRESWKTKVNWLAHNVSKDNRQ
PI3Kδ, sequence (P27986 whole entry partner): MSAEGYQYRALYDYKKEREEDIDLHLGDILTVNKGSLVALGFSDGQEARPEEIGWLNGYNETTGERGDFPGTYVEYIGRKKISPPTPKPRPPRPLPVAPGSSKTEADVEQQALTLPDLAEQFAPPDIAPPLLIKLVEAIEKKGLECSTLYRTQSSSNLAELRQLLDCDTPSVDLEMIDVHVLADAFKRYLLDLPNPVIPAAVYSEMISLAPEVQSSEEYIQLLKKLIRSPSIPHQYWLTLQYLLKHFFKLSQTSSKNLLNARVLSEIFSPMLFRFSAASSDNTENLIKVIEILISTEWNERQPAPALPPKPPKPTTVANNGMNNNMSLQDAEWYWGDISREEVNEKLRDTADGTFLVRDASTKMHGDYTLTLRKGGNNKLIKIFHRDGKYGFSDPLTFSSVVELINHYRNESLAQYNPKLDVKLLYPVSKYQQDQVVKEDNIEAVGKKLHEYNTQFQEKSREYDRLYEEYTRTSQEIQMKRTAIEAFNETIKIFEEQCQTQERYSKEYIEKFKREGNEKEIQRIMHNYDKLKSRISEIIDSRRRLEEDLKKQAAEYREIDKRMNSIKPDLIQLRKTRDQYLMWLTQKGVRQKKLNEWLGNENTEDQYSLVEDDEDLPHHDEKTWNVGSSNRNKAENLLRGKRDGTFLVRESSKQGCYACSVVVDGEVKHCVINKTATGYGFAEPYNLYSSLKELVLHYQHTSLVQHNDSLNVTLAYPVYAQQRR
How it was run: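 Luminescent ADP-Glo readout of PI3Kδ: after a 60 min RT reaction with PI/ATP substrate, ATP depletion (40 min) and ADP detection (40 min) steps followed. Compounds tested as eight five-fold serial dilutions; inhibition rates fitted to log(inhibitor) vs. response, variable slope, for IC50.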

[1] = tested on: NCI-H358 cells (KRAS G12C mutant); experiment: NCI-H358 cell proliferation inhibition (CellTiter-Glo); format: cell-based; conditions: Homo sapiens, NCI-H358, 72 h; H358 cells (G12C mutation), 3 days, Table 6; read-out: NCI-H358 (IC50)
[2] = tested on: MIA PaCa-2-AMGR drug-resistant cell line; experiment: MIA PaCa-2-AMGR drug-resistant cell proliferation inhibitory activity test; format: cell-based; conditions: 72 h, MIA PaCa-2-AMGR drug-resistant cells, 3 days incubation, CellTiter-Glo
How it was run: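 Viability was read by CellTiter-Glo luminescence after 3 days of compound exposure (8 points, 5-fold serial dilution), with IC50 derived relative to untreated control. Cells: AMG510-resistant MIA PaCa-2 (selected stepwise to 1 μM AMG510), 4×10^3/well, DMEM + 10% FBS + 2.5% horse serum, 37° C.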

PI3Kα, sequence (P42336 whole entry): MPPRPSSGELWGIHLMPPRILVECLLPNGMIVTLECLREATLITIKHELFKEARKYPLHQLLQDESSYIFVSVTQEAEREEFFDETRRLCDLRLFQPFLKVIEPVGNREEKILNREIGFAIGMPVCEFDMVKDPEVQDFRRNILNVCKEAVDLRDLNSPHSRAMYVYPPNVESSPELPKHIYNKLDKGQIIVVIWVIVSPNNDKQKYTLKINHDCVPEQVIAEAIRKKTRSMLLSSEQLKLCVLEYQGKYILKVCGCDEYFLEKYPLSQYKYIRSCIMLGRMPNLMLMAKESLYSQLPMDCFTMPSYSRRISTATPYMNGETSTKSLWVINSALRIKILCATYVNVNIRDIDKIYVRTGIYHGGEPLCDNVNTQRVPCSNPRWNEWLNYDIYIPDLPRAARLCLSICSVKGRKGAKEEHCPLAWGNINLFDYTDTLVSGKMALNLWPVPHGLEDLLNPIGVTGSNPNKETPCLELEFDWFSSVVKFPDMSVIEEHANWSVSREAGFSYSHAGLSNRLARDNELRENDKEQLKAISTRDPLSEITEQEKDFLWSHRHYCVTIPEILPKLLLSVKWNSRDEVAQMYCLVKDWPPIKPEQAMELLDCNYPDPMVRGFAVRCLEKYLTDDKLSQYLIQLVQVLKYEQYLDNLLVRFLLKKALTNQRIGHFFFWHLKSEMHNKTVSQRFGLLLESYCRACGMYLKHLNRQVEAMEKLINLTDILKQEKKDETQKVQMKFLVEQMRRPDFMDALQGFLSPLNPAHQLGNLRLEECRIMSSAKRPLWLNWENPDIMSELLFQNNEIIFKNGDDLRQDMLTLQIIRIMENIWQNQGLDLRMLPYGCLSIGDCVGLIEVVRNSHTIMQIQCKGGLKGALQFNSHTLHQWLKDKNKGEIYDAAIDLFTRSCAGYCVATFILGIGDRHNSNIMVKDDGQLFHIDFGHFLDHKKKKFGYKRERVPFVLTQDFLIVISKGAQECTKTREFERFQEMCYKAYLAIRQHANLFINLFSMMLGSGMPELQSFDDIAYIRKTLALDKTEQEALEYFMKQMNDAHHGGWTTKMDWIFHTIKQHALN
PI3Kα, sequence (P27986 whole entry partner): as the sequence (P27986 whole entry partner) above

Row | SMILES | IC50 (PI3Kα; Table 4) | IC50 (PI3Kδ; Table 4) | IC50 [1] | IC50 [2] | IC50 (PI3Kα; Table 2) | IC50 (PI3Kδ; Table 2) | IC50 (PI3Kδ; Table 1)
1 | COc1ncc(-c2ccc3ncnc(N4CCN(C(=O)/C=C/C(C)=O)C[C@@H]4C)c3c2)cc1NS(=O)(=O)c1ccc(F)cc1 [Example 153, (S,E)-4-fluoro-N-(2-methoxy-5-(4-(2-methyl-4-(4-oxopent-2-enoyl)piperazin-1-yl)quinazolin-6-yl)pyridin-3-yl)benzenesulfonamide] | 0.73 nM | 12.7 nM | 59.8 nM | 49.7 nM | – | – | –
2 | COc1ncc(-c2ccc3ncnc(N4CCC5(CC4)CN(C(=O)/C=C/C(C)=O)C5)c3c2)cc1NS(=O)(=O)c1ccccc1F [Example 150, (E)-2-fluoro-N-(2-methoxy-5-(4-(2-(4-oxopent-2-enoyl)-2,7-diazaspiro[3.5]nonan-7-yl)quinazolin-6-yl)pyridin-3-yl)benzenesulfonamide] | 0.11 nM | 10.7 nM | 16.4 nM | 55.1 nM | – | – | –
3 | COc1ncc(-c2ccc3ncnc(N4CCN(C(=O)/C=C/C(C)=O)CC4)c3c2)cc1NS(=O)(=O)c1cc(F)ccc1F [Example 94, (E)-2,5-difluoro-N-(2-methoxy-5-(4-(4-(4-oxopent-2-enoyl)piperazin-1-yl)quinazolin-6-yl)pyridin-3-yl)benzenesulfonamide] | – | – | 62.5 nM | 126 nM | 11 nM | 56.7 nM | –
4 | COc1ncc(-c2ccc3ncnc(C4CCN(C(=O)/C=C/C(C)=O)CC4)c3c2)cc1NS(=O)(=O)c1c(F)cccc1Cl [Example 206, (E)-2-chloro-6-fluoro-N-(2-methoxy-5-(4-(1-(4-oxopent-2-enoyl)piperidin-4-yl)quinazolin-6-yl)pyridin-3-yl) benzenesulfonamide] | 3.9 nM | 15 nM | 8 nM | 6.9 nM | – | – | –
5 | COc1ncc(-c2ccc3ncnc(N4CCN(C(=O)/C=C/C(C)=O)CC4)c3n2)cc1NS(=O)(=O)c1ccncc1F [Example 220, (E)-3-fluoro-N-(2-methoxy-5-(4-(4-(4-oxopent-2-enoyl)piperazin-1-yl)pyrido[3,2-d]pyrimidin-6-yl)pyridin-3-yl) pyridine-4-sulfonamide] | 1.1 nM | 11.4 nM | 61.5 nM | 212 nM | – | – | –
6 | [2H]C([2H])([2H])Oc1ncc(-c2ccc3ncnc(N4CCN(C(=O)/C=C/C(C)=O)CC4)c3c2)cc1NS(=O)(=O)c1ccc(F)cc1F [Example 191, (E)-2,4-difluoro-N-(2-(methoxy-d3)-5-(4-(4-(4-oxopent-2-enoyl)piperazin-1-yl)quinazolin-6-yl)pyridin-3-yl)benzene-sulfonamide] | – | 16.7 nM | 20.2 nM | 40.8 nM | – | – | –
7 | COc1ncc(-c2ccc3ncnc(N4CC5CCC(C4)N5C(=O)/C=C/C(C)=O)c3c2)cc1NS(=O)(=O)c1ccc(F)cc1Cl [Example 175, 2-chloro-4-fluoro-N-(2-methoxy-5-(4-(8-((E)-4-oxopent-2-enoyl)-3,8-diazabicyclo [3.2.1]octan-3-yl)quinazolin-6-yl)pyridin-3-yl)benzene-sulfonamide] | 6 nM | 16.2 nM | 22.3 nM | 36.7 nM | – | – | –
8 | COc1ncc(-c2ccc3ncnc(N4CCC5(CC4)CN(C(=O)/C=C/C(C)=O)C5)c3c2)cc1NS(=O)(=O)c1ccc(F)cc1Cl [Example 171, (E)-2-chloro-4-fluoro-N-(2-methoxy-5-(4-(2-(4-oxopent-2-enoyl)-2,7-diazaspiro[3.5]nonan-7-yl)quinazolin-6-yl)pyridin-3-yl)benzene-sulfonamide] | 12.9 nM | 40.1 nM | 5.7 nM | 32.9 nM | – | – | –
9 | COc1ncc(-c2ccc3ncnc(N4CCN(C(=O)/C=C/C(C)=O)CC4)c3c2)cc1NS(=O)(=O)c1ccc(F)cc1F [Example 6, (E)-2,4-difluoro-N-(2-methoxy-5-(4-(4-(4-oxopent-2-enoyl)piperazin-1-yl)quinazoline-6-yl)pyridin-3-yl)benzenesulfonamide] | – | – | 18 nM | 49.2 nM | – | – | 10.9 nM
